Test results reported in patent US10681909B2, “Herbicidal triazoles” (FMC Corporation, priority 2014, dated 2020).

What was measured:
barnyardgrass [1] = assay: Test A preemergence; format: in vivo, Echinochloa crus-galli; settings: 0 to 100 scale (0 no effect, 100 complete control)
How it was run: (§1)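 For preemergence, seeds were sown in a loam soil-sand blend and given a directed soil spray of test chemical in a non-phytotoxic solvent mixture with surfactant. For postemergence, plants in pots of the same blend were sprayed with the same formulation at the one- to two-leaf stage, 2 to 10 cm tall.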

barnyardgrass [2] = assay: Test A postemergence; format: in vivo, Echinochloa crus-galli; settings: 0 to 100 scale (0 no effect, 100 complete control), approx. 10 d
How it was run: as §1

foxtail, giant [3] = assay: Test A postemergence; format: in vivo, Setaria faberii; settings: 0 to 100 scale (0 no effect, 100 complete control), approx. 10 d
How it was run: as §1

pigweed = assay: Test A postemergence; format: in vivo, Amaranthus retroflexus; settings: 0 to 100 scale (0 no effect, 100 complete control), approx. 10 d
How it was run: as §1

wheat = assay: Test A postemergence; format: in vivo, Triticum aestivum; settings: 0 to 100 scale (0 no effect, 100 complete control), approx. 10 d
How it was run: as §1

corn [4] = assay: Test A postemergence; format: in vivo, Zea mays; settings: 0 to 100 scale (0 no effect, 100 complete control), approx. 10 d
How it was run: as §1

sedge, umbrella = assay: Test B flooded paddy test; format: in vivo, Cyperus difformis; settings: 250 g ai/ha, applied to paddy water at 2-leaf stage, visual rating after 13 to 15 d, scale 0 (no effect) to 100 (complete control)
How it was run: (§2)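 Pots were flooded to 3 cm above the soil at treatment, and compounds were applied directly into the paddy water. That depth was held throughout. After 13 to 15 d in a greenhouse, plants were rated visually against untreated controls.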

ducksalad = assay: Test B flooded paddy test; format: in vivo, Heteranthera limosa; settings: 250 g ai/ha, applied to paddy water at 2-leaf stage, visual rating after 13 to 15 d, scale 0 (no effect) to 100 (complete control)
How it was run: as §2

barnyardgrass [5] = assay: Test B flooded paddy test; format: in vivo, Echinochloa crus-galli; settings: 250 g ai/ha, applied to paddy water at 2-leaf stage, visual rating after 13 to 15 d, scale 0 (no effect) to 100 (complete control)
How it was run: as §2

ryegrass, Italian = assay: Test C postemergence; format: in vivo, Lolium multiflorum
How it was run: (§3)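 Preemergence: seeds sown in loam soil–sand blend and treated with test chemicals formulated in a non-phytotoxic solvent mixture containing a surfactant. Postemergence: plants grown in peat moss/vermiculite-based medium and sprayed with the same formulation at 2 to 18 cm height (1- to 4-leaf stage).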

corn [6] = assay: Test C postemergence; format: in vivo, Zea mays
How it was run: as §3

crabgrass, large = assay: Test C postemergence; format: in vivo, Digitaria sanguinalis
How it was run: as §3

foxtail, giant [7] = assay: Test C postemergence; format: in vivo, Setaria faberii
How it was run: as §3

morningglory = assay: Test C postemergence; format: in vivo, Ipomoea coccinea
How it was run: as §3

nutsedge, yellow = assay: Test C postemergence; format: in vivo, Cyperus esculentus
How it was run: as §3

ragweed = assay: Test C postemergence; format: in vivo, Ambrosia elatior
How it was run: as §3

barnyardgrass [8] = assay: Test C postemergence; format: in vivo, Echinochloa crus-galli
How it was run: as §3

oilseed rape = assay: Test C postemergence; format: in vivo, Brassica napus
How it was run: as §3

waterhemp = assay: Test C postemergence; format: in vivo, Amaranthus rudis
How it was run: as §3

velvetleaf = assay: Test C postemergence; format: in vivo, Abutilon theophrasti
How it was run: as §3

kochia = assay: Test C postemergence; format: in vivo, Kochia scoparia
How it was run: as §3

## COc1nc(-c2ccc(C(F)(F)F)cc2)nn1Cc1ccnc(C(F)(F)F)c1 [Compound 25]
Barnyardgrass [1]; 31 g ai/ha
  Plant response rating, Barnyardgrass: 10
Barnyardgrass [1]; 125 g ai/ha
  Plant response rating, Barnyardgrass: 70
Barnyardgrass [2]; 31 g ai/ha
  Plant response rating, Barnyardgrass: 20
Barnyardgrass [2]; 125 g ai/ha
  Plant response rating, Barnyardgrass: 60
foxtail, giant [3]; 31 g ai/ha
  Plant response rating, Foxtail, Giant: 50
foxtail, giant [3]; 125 g ai/ha
  Plant response rating, Foxtail, Giant: 90
pigweed; 31 g ai/ha
  Plant response rating, Pigweed: 90
pigweed; 125 g ai/ha
  Plant response rating, Pigweed: 100
wheat; 31 g ai/ha
  Plant response rating, Wheat: 10
wheat; 125 g ai/ha
  Plant response rating, Wheat: 20
Corn [4]; 31 g ai/ha
  Plant response rating, Corn: 10
Corn [4]; 125 g ai/ha
  Plant response rating, Corn: 30
sedge, umbrella
  Plant response rating, Sedge, Umbrella, Flood: 95
ducksalad
  Plant response rating, Ducksalad, Flood: 20
Barnyardgrass [5]
  Plant response rating, Barnyardgrass, Flood: 35
ryegrass, Italian; 31 g ai/ha
  Plant response rating (scale of 0 to 100 where 0 is no effect and 100 is complete control): 5
ryegrass, Italian; 62 g ai/ha
  Plant response rating (scale of 0 to 100 where 0 is no effect and 100 is complete control): 5
ryegrass, Italian; 125 g ai/ha
  Plant response rating (scale of 0 to 100 where 0 is no effect and 100 is complete control): 10
ryegrass, Italian; 250 g ai/ha
  Plant response rating (scale of 0 to 100 where 0 is no effect and 100 is complete control): 30
Corn [6]; 31 g ai/ha
  Plant response rating (scale of 0 to 100 where 0 is no effect and 100 is complete control): 20
Corn [6]; 62 g ai/ha
  Plant response rating (scale of 0 to 100 where 0 is no effect and 100 is complete control): 20
Corn [6]; 125 g ai/ha
  Plant response rating (scale of 0 to 100 where 0 is no effect and 100 is complete control): 25
Corn [6]; 250 g ai/ha
  Plant response rating (scale of 0 to 100 where 0 is no effect and 100 is complete control): 25
crabgrass, large; 31 g ai/ha
  Plant response rating (scale of 0 to 100 where 0 is no effect and 100 is complete control): 15
crabgrass, large; 62 g ai/ha
  Plant response rating (scale of 0 to 100 where 0 is no effect and 100 is complete control): 20
crabgrass, large; 125 g ai/ha
  Plant response rating (scale of 0 to 100 where 0 is no effect and 100 is complete control): 30
crabgrass, large; 250 g ai/ha
  Plant response rating (scale of 0 to 100 where 0 is no effect and 100 is complete control): 45
foxtail, giant [7]; 31 g ai/ha
  Plant response rating (scale of 0 to 100 where 0 is no effect and 100 is complete control): 10
foxtail, giant [7]; 62 g ai/ha
  Plant response rating (scale of 0 to 100 where 0 is no effect and 100 is complete control): 20
foxtail, giant [7]; 125 g ai/ha
  Plant response rating (scale of 0 to 100 where 0 is no effect and 100 is complete control): 20
foxtail, giant [7]; 250 g ai/ha
  Plant response rating (scale of 0 to 100 where 0 is no effect and 100 is complete control): 35
morningglory; 31 g ai/ha
  Plant response rating (scale of 0 to 100 where 0 is no effect and 100 is complete control): 90
morningglory; 62 g ai/ha
  Plant response rating (scale of 0 to 100 where 0 is no effect and 100 is complete control): 85
morningglory; 125 g ai/ha
  Plant response rating (scale of 0 to 100 where 0 is no effect and 100 is complete control): 75
morningglory; 250 g ai/ha
  Plant response rating (scale of 0 to 100 where 0 is no effect and 100 is complete control): 95
nutsedge, yellow; 31 g ai/ha
  Plant response rating (scale of 0 to 100 where 0 is no effect and 100 is complete control): 20
nutsedge, yellow; 62 g ai/ha
  Plant response rating (scale of 0 to 100 where 0 is no effect and 100 is complete control): 20
nutsedge, yellow; 125 g ai/ha
  Plant response rating (scale of 0 to 100 where 0 is no effect and 100 is complete control): 25
nutsedge, yellow; 250 g ai/ha
  Plant response rating (scale of 0 to 100 where 0 is no effect and 100 is complete control): 25
ragweed; 31 g ai/ha
  Plant response rating (scale of 0 to 100 where 0 is no effect and 100 is complete control): 65
ragweed; 62 g ai/ha
  Plant response rating (scale of 0 to 100 where 0 is no effect and 100 is complete control): 80
ragweed; 125 g ai/ha
  Plant response rating (scale of 0 to 100 where 0 is no effect and 100 is complete control): 75
ragweed; 250 g ai/ha
  Plant response rating (scale of 0 to 100 where 0 is no effect and 100 is complete control): 85
Barnyardgrass [8]; 31 g ai/ha
  Plant response rating (scale of 0 to 100 where 0 is no effect and 100 is complete control): 20
Barnyardgrass [8]; 62 g ai/ha
  Plant response rating (scale of 0 to 100 where 0 is no effect and 100 is complete control): 25
Barnyardgrass [8]; 125 g ai/ha
  Plant response rating (scale of 0 to 100 where 0 is no effect and 100 is complete control): 35
Barnyardgrass [8]; 250 g ai/ha
  Plant response rating (scale of 0 to 100 where 0 is no effect and 100 is complete control): 35
Oilseed rape; Oilsee Rape, 250 g ai/ha
  Plant response rating (scale of 0 to 100 where 0 is no effect and 100 is complete control): 90
Oilseed rape; Oilseed Rape, 31 g ai/ha
  Plant response rating (scale of 0 to 100 where 0 is no effect and 100 is complete control): 90
Oilseed rape; Oilseed Rape, 62 g ai/ha
  Plant response rating (scale of 0 to 100 where 0 is no effect and 100 is complete control): 90
Oilseed rape; Oilseed Rape, 125 g ai/ha
  Plant response rating (scale of 0 to 100 where 0 is no effect and 100 is complete control): 90
waterhemp; 31 g ai/ha
  Plant response rating (scale of 0 to 100 where 0 is no effect and 100 is complete control): 95
waterhemp; 62 g ai/ha
  Plant response rating (scale of 0 to 100 where 0 is no effect and 100 is complete control): 95
waterhemp; 125 g ai/ha
  Plant response rating (scale of 0 to 100 where 0 is no effect and 100 is complete control): 98
waterhemp; 250 g ai/ha
  Plant response rating (scale of 0 to 100 where 0 is no effect and 100 is complete control): 95
velvetleaf; 31 g ai/ha
  Plant response rating (scale of 0 to 100 where 0 is no effect and 100 is complete control): 35
velvetleaf; 62 g ai/ha
  Plant response rating (scale of 0 to 100 where 0 is no effect and 100 is complete control): 50
velvetleaf; 125 g ai/ha
  Plant response rating (scale of 0 to 100 where 0 is no effect and 100 is complete control): 70
velvetleaf; 250 g ai/ha
  Plant response rating (scale of 0 to 100 where 0 is no effect and 100 is complete control): 75
kochia; 31 g ai/ha
  Plant response rating (scale of 0 to 100 where 0 is no effect and 100 is complete control): 90
kochia; 62 g ai/ha
  Plant response rating (scale of 0 to 100 where 0 is no effect and 100 is complete control): 90
kochia; 125 g ai/ha
  Plant response rating (scale of 0 to 100 where 0 is no effect and 100 is complete control): 90
kochia; 250 g ai/ha
  Plant response rating (scale of 0 to 100 where 0 is no effect and 100 is complete control): 95
